According to the NIST ThermoML archive (doi:10.1016/j.jct.2011.10.027):
Numbers after ± are expanded uncertainties.

Test: xn = mol fraction of the nth substance listed
Details: 101 kPa, Liquid, Vibrating tube method

CCCCN(CCCC)CCCC [tributylamine] + CCc1ccccc1
mass density [kg/m3]
Details	293.15 K	298.15 K	303.15 K	313.15 K	323.15 K	333.15 K
x1 = 0.0829	852.96 ± 0.24	848.66 ± 0.24	844.35 ± 0.24	835.7 ± 0.24	827 ± 0.24	818.22 ± 0.24
x1 = 0.1602	841.78 ± 0.24	837.56 ± 0.24	833.34 ± 0.24	824.84 ± 0.24	816.3 ± 0.24	807.68 ± 0.24
x1 = 0.2404	831.68 ± 0.24	827.53 ± 0.24	823.38 ± 0.24	815.04 ± 0.24	806.64 ± 0.24	798.19 ± 0.24
x1 = 0.3189	823 ± 0.24	818.92 ± 0.24	814.83 ± 0.24	806.62 ± 0.24	798.36 ± 0.24	790.04 ± 0.24
x1 = 0.3972	815.35 ± 0.24	811.33 ± 0.24	807.3 ± 0.24	799.2 ± 0.24	791.06 ± 0.24	782.85 ± 0.24
x1 = 0.4788	808.26 ± 0.24	804.3 ± 0.24	800.32 ± 0.24	792.33 ± 0.24	784.3 ± 0.24	776.21 ± 0.24
x1 = 0.572	801.08 ± 0.24	797.17 ± 0.24	793.25 ± 0.24	785.37 ± 0.24	777.45 ± 0.24	769.48 ± 0.24
x1 = 0.6382	796.47 ± 0.24	792.6 ± 0.24	788.71 ± 0.24	780.91 ± 0.24	773.07 ± 0.24	765.18 ± 0.24
x1 = 0.7192	791.35 ± 0.24	787.52 ± 0.24	783.67 ± 0.24	775.96 ± 0.24	768.2 ± 0.24	760.39 ± 0.24
x1 = 0.8022	786.64 ± 0.24	782.83 ± 0.24	779.02 ± 0.24	771.38 ± 0.24	763.69 ± 0.24	755.96 ± 0.24
x1 = 0.8765	782.75 ± 0.24	778.98 ± 0.24	775.21 ± 0.24	767.62 ± 0.24	760 ± 0.24	752.32 ± 0.24
x1 = 0.9556	778.92 ± 0.24	775.18 ± 0.24	771.44 ± 0.24	763.92 ± 0.24	756.36 ± 0.24	748.76 ± 0.24

CCCCN(CCCC)CCCC [tributylamine] + Cc1ccc(C)cc1
mass density [kg/m3]
Details	293.15 K	298.15 K	303.15 K	313.15 K	323.15 K	333.15 K
x1 = 0.0834	848.23 ± 0.24	843.97 ± 0.24	839.71 ± 0.24	831.14 ± 0.24	822.53 ± 0.24	813.86 ± 0.24
x1 = 0.1617	837.85 ± 0.24	833.67 ± 0.24	829.48 ± 0.24	821.06 ± 0.24	812.59 ± 0.24	804.05 ± 0.24
x1 = 0.2416	828.6 ± 0.24	824.47 ± 0.24	820.35 ± 0.24	812.06 ± 0.24	803.72 ± 0.24	795.32 ± 0.24
x1 = 0.3196	820.59 ± 0.24	816.53 ± 0.24	812.46 ± 0.24	804.29 ± 0.24	796.06 ± 0.24	787.79 ± 0.24
x1 = 0.3984	813.4 ± 0.2	809.38 ± 0.24	805.37 ± 0.24	797.3 ± 0.2	789.19 ± 0.24	781.03 ± 0.24
x1 = 0.482	806.6 ± 0.2	802.64 ± 0.24	798.67 ± 0.24	790.72 ± 0.24	782.71 ± 0.24	774.64 ± 0.24
x1 = 0.56	800.89 ± 0.24	796.97 ± 0.24	793.04 ± 0.24	785.17 ± 0.24	777.26 ± 0.24	769.29 ± 0.24
x1 = 0.633	796.02 ± 0.24	792.14 ± 0.24	788.26 ± 0.24	780.46 ± 0.24	772.62 ± 0.24	764.73 ± 0.24
x1 = 0.7229	790.59 ± 0.24	786.75 ± 0.24	782.91 ± 0.24	775.2 ± 0.24	767.45 ± 0.24	759.65 ± 0.24
x1 = 0.7717	787.86 ± 0.24	784.05 ± 0.24	780.24 ± 0.24	772.57 ± 0.24	764.86 ± 0.24	757.1 ± 0.24
x1 = 0.878	782.45 ± 0.24	778.68 ± 0.24	774.9 ± 0.24	767.33 ± 0.24	759.71 ± 0.24	752.04 ± 0.24
x1 = 0.9458	779.3 ± 0.24	775.56 ± 0.24	771.81 ± 0.24	764.28 ± 0.24	756.72 ± 0.24	749.1 ± 0.24

CCCCN(CCCC)CCCC [tributylamine] + Cc1cccc(C)c1
mass density [kg/m3]
Details	293.15 K	298.15 K	303.15 K	313.15 K	323.15 K	333.15 K
x1 = 0.0803	851.21 ± 0.24	846.99 ± 0.24	842.76 ± 0.24	834.27 ± 0.24	825.72 ± 0.24	817.11 ± 0.24
x1 = 0.1564	840.57 ± 0.24	836.42 ± 0.24	832.26 ± 0.24	823.89 ± 0.24	815.48 ± 0.24	806.98 ± 0.24
x1 = 0.2405	830.31 ± 0.24	826.21 ± 0.24	822.11 ± 0.24	813.87 ± 0.24	805.59 ± 0.24	797.24 ± 0.24
x1 = 0.3223	821.61 ± 0.24	817.57 ± 0.24	813.53 ± 0.24	805.4 ± 0.24	797.23 ± 0.24	788.99 ± 0.24
x1 = 0.3983	814.42 ± 0.24	810.43 ± 0.24	806.43 ± 0.24	798.4 ± 0.24	790.32 ± 0.24	782.19 ± 0.24
x1 = 0.4784	807.64 ± 0.24	803.69 ± 0.24	799.74 ± 0.24	791.81 ± 0.24	783.83 ± 0.24	775.79 ± 0.24
x1 = 0.5497	802.22 ± 0.24	798.31 ± 0.24	794.4 ± 0.24	786.54 ± 0.24	778.64 ± 0.24	770.68 ± 0.24
x1 = 0.6375	796.16 ± 0.24	792.3 ± 0.24	788.42 ± 0.24	780.65 ± 0.24	772.84 ± 0.24	764.97 ± 0.24
x1 = 0.7175	791.21 ± 0.24	787.38 ± 0.24	783.55 ± 0.24	775.85 ± 0.24	768.1 ± 0.24	760.32 ± 0.24
x1 = 0.7958	786.77 ± 0.24	782.98 ± 0.24	779.18 ± 0.24	771.54 ± 0.24	763.87 ± 0.24	756.15 ± 0.24
x1 = 0.8823	782.31 ± 0.24	778.55 ± 0.24	774.78 ± 0.24	767.21 ± 0.24	759.6 ± 0.24	751.95 ± 0.24
x1 = 0.9616	778.58 ± 0.24	774.84 ± 0.24	771.1 ± 0.24	763.6 ± 0.24	756.05 ± 0.24	748.45 ± 0.24
